The source of these data is ChEMBL document CHEMBL4033680, “Derivatives of caffeic acid, a natural antioxidant, as the basis for the discovery of novel nonpeptidic neurotrophic agents” (2017).

Active and inactive are the calls of the source. No cut-off for these calls is given here.

Assay [1] has as its system PC-12. Put plainly: Potentiation of NGF-induced neuronal differentiation in rat PC12 cells assessed as increase in number of neurites at 5 uM after 8 days by phase contrast micoscopy. The class given is functional, cell-based.
Assay [2] concerns PC-12. Put plainly: Induction of neurite outgrowth in rat PC12 cells assessed as increase in total number of neurites at 5 to 25 uM after 8 days by phase contrast micoscopy. The class given is functional, cell-based.
The test system of assay [3] is PC-12. Put plainly: Potentiation of NGF-induced neuronal differentiation in rat PC12 cells assessed as increase in number of neurites longer than 100 umeter at 5 uM after 8 days by phase contrast micoscopy. The class given is functional, cell-based.
Assay [4] deals with PC-12. The experiment in a line: Potentiation of NGF-induced neuronal differentiation in rat PC12 cells assessed as increase in number of neurites longer than 100 umeter at 25 uM after 8 days by phase contrast micoscopy. The class given is functional, cell-based.
The test system of assay [5] is PC-12. The experiment in a line: Neuroprotective activity against serum deprivation-induced cell death in rat PC12 cells assessed as cell survival at 25 uM after 48 hrs by MTT assay relative to control. The class given is functional. Particulars: PC-12, 48 h, read-out: Survival.
Assay [6] concerns PC-12. The experiment in a line: Potentiation of NGF-induced neuronal differentiation in rat PC12 cells assessed as increase in number of neurites at 25 uM after 8 days by phase contrast micoscopy. The format is functional, cell-based.
In assay [7] the test system is PC-12. Put plainly: Potentiation of NGF-induced neuronal differentiation in rat PC12 cells assessed as increase in number of neurites at 1 uM after 8 days by phase contrast micoscopy. The class given is functional, cell-based.
In assay [8] the test system is PC-12. Put plainly: Neuroprotective activity against serum deprivation-induced cell death in rat PC12 cells assessed as increase in cell survival at 25 uM after 48 hrs in presence of TrkA inhibitor K252a by MTT assay. The format is functional, cell-based. In general terms: Tetrazolium dyes change colour on reduction, which living cells bring about.
Assay [9] concerns the target High affinity nerve growth factor receptor (Rattus norvegicus) (UniProt P35739). Put plainly: Potentiation of NGF-induced TrkA phosphorylation in rat PC12 cells at 5 to 25 uM after 60 mins by Western blot method. The format is cell-based. For orientation: Immunoblotting shows a protein as a band on a membrane.
In assay [10] the target is RAC-alpha serine/threonine-protein kinase (Rattus norvegicus) (UniProt P47196). The experiment in a line: Increase in AKT phosphorylation in rat PC12 cells at 5 to 25 uM after 2 hrs by immunoblotting method. The format is cell-based.
RAC-alpha serine/threonine-protein kinase (Rattus norvegicus), sequence (P47196 whole entry): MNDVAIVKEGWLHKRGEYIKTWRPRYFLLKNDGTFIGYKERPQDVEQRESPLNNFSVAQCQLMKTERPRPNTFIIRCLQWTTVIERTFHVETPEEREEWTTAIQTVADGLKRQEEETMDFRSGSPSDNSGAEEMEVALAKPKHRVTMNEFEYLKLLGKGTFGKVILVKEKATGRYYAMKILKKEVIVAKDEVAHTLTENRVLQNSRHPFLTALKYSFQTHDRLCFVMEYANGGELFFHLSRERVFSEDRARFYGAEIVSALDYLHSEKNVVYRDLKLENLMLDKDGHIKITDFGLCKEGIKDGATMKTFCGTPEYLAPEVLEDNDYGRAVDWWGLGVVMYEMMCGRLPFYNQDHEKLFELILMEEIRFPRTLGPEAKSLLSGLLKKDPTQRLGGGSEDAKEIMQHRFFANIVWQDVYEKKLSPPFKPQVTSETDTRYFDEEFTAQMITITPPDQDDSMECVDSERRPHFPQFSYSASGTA
Assay [11] has the same target. Put plainly: Increase in NGF-induced AKT phosphorylation in rat PC12 cells at 5 to 25 uM after 2 hrs by immunoblotting method. The class given is cell-based.
Assay [12] concerns the target T1, Mitogen-activated protein kinase 1 and 3 (ERK2 and ERK1) (Rattus norvegicus) (UniProt P63086+P21708). The experiment in a line: Increase in NGF-induced ERK1/2 phosphorylation in rat PC12 cells at 5 to 25 uM after 2 hrs by immunoblotting method. The class given is cell-based.
The target of assay [13] is T1, Mitogen-activated protein kinase 1 and 3 (ERK2 and ERK1) (Rattus norvegicus). Put plainly: Increase in ERK1/2 phosphorylation in rat PC12 cells after 2 hrs by immunoblotting method. The class given is cell-based.
Assay [14] deals with High affinity nerve growth factor receptor (Rattus norvegicus) (UniProt P35739). Put plainly: Activation of TrkA in rat PC12 cells assessed as increase in phospho-TrkA levels at 5 to 25 uM after 60 mins by Western blot method. The format is cell-based.
High affinity nerve growth factor receptor (Rattus norvegicus), sequence (P35739 whole entry): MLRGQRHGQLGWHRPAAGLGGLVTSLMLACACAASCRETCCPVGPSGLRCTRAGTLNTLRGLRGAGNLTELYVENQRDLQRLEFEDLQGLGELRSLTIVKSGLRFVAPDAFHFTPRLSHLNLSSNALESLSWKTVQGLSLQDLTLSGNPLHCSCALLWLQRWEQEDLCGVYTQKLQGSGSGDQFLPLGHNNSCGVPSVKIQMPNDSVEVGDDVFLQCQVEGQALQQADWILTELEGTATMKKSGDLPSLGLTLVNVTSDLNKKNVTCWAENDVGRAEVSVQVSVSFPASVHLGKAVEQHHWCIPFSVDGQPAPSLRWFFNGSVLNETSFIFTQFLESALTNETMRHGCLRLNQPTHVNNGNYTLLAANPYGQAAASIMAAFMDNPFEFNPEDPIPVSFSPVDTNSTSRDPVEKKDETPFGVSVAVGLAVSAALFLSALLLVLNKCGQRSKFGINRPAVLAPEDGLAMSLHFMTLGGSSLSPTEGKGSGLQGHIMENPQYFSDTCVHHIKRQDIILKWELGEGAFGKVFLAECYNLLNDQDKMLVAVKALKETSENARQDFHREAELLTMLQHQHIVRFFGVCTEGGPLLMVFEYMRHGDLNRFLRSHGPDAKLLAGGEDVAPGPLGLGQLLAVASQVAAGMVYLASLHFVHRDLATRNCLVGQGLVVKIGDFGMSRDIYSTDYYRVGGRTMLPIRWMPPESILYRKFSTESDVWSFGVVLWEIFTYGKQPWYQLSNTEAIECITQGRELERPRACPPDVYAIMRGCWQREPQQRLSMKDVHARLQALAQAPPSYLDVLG
Assay [15] has as its system PC-12. Put plainly: Potentiation of NGF-induced neuronal differentiation in rat PC12 cells assessed as increase in number of neurites after 8 days by phase contrast micoscopy. The class given is functional, cell-based.

T1 sequence (P21708 whole entry, looked up): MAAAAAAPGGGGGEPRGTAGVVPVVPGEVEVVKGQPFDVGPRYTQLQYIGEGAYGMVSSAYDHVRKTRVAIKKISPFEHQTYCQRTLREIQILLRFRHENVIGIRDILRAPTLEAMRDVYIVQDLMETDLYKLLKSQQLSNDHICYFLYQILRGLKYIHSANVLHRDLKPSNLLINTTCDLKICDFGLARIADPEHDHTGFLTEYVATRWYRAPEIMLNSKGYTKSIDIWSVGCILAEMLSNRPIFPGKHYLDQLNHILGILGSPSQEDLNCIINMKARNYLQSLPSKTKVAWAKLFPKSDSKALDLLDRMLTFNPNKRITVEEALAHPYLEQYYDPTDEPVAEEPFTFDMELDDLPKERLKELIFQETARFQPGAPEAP
T1 sequence (P63086 whole entry, looked up): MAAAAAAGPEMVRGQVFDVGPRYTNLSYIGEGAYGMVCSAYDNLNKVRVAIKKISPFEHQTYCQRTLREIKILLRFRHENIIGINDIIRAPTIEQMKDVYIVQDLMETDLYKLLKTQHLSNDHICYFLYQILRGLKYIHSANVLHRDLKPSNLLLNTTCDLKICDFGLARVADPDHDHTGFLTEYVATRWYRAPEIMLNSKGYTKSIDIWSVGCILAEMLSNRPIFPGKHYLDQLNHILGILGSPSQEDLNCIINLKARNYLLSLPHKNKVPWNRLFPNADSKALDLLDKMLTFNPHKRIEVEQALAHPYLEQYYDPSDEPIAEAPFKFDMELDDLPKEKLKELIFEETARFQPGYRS

Turning to `CCCCCCCCNC(=O)/C=C/c1ccc(O)c(O)c1`, the result in assay [1], in assay [3], in [4] and in [6] was Active. Besides, the result in assay [2], in assay [7] and in assay [8] was inactive. The viability at 25 µM in assay [5] amounted to 158%.

With `CCCCCCCCCCCCNC(=O)/C=C/c1ccc(O)c(O)c1`, the outcome in [9], in [11], in assay [8], in assay [14] and in assay [15] was inactive. For the same molecule, the outcome in [10] and in assay [12] was Active. The Activity entry in assay [13] is “Dose-dependent effect”. Also, the viability at 25 µM in [5] was determined as 230%.

For the molecule `CCCCNC(=O)/C=C/c1ccc(O)c(O)c1`, the result in assay [9], in assay [2], in assay [10], in assay [11], in [7] and in [8] was inactive. Moreover, the outcome in assay [14] was inactive. The outcome in assay [1], in [3], in [4], in assay [12] and in [6] was Active. For the same molecule, the Activity result in assay [13] is “Dose-dependent effect”. The viability at 25 µM in assay [5] is 202%.

`CCCCCCNC(=O)/C=C/c1ccc(O)c(O)c1` [CAFFEOYLHEXYLAMIDE]: the outcome in assay [1], in assay [3], in assay [4] and in assay [6] was Active. The outcome in assay [2], in assay [7] and in [8] was inactive. Further, the viability at 25 µM in [5] worked out at 183%.

On to `CCCCCCCCCCNC(=O)/C=C/c1ccc(O)c(O)c1`, for which the viability at 25 µM in assay [5] is 193%. The outcome in assay [8] and in assay [15] was inactive.

In the case of `CCCNC(=O)/C=C/c1ccc(O)c(O)c1`, the outcome in assay [2], in assay [7] and in assay [8] was inactive. For the same molecule, the outcome in assay [4] and in [6] was Active. Besides, the viability at 25 µM in [5] is 158%.
